Source: US20240041951A1, “METHOD FOR IMPROVING PRODUCTIVITY IN LIVESTOCK AND/OR POULTRY AND METHOD FOR IMPROVING INTESTINAL FLORA IN LIVESTOCK AND/OR POULTRY” (Hayashibara Co., Ltd., priority 2020, published 2024)
Where two headings read alike, the source gives them in different places. Marks after values point to notes of the source that are not given here.

Columns and labels:
Assay type in all cases: in vivo, male Chunky broiler chickens
[1] = system: bacteria belonging to the genus Lactobacillus; test: Intestinal flora: number of Lactobacillus cells in ileum content of reared broiler chickens; details: ileum content at 24 days old
[2] = system: Welch bacillus (Clostridium perfringens); details: ileum content at 24 days old, average of stocking densities 11 and 14 individuals/m^2, * = significant vs control (p<0.05)
[3] = Rearing test: body weight, weight gain, feed intake and feed conversion ratio; details: for Feed conversion ratio: feed intake/weight gain
[4] = Rearing test: uniformity of body weight (coefficient of variation); details: body weights of individual chickens at 42 days old; (standard deviation/average)×100
[5] = from 0 day old to 42 days old (entire rearing period)
[6] = from 0 day old to 42 days old (entire rearing period), listed as trehalose group
[7] = from 35 days old to 42 days old (finishing period)
[8] = from 35 days old to 42 days old (finishing period), listed as trehalose group

Structure (SMILES): OC[C@H]1O[C@H](O[C@H]2O[C@H](CO)[C@@H](O)[C@H](O)[C@H]2O)[C@H](O)[C@@H](O)[C@@H]1O [Trehalose group, α,α-trehalose]
- Number of microbial cells, Lactobacillus spp. [1]: 10.2 × 10^7 cells/g
- Number of microbial cells, Lactobacillus spp. ([1]; listed as trehalose group): 10.2×10^7 cells/g
- Number of microbial cells, Clostridium perfringens [2]: 0.37 × 10^2* cells/g
- Number of microbial cells, Clostridium perfringens ([2]; listed as trehalose group): 0.37×10^2 cells/g
- Average body weight ([3]; 0 day old (start of rearing)): 41 g
- Average body weight ([3]; 35 days old): 2621 g
- Average body weight ([3]; 42 days old): 3251 g
- Feed intake ([3]; from 0 day old to 35 days old): 3458 g
- Weight gain ([3]; from 0 day old to 35 days old): 2580 g
- Feed conversion ratio ([3]; from 0 day old to 35 days old): 1.340
- Feed intake [3, 5]: 4756 g
- Weight gain [3, 5]: 3210* g
- Feed conversion ratio [3, 5]: 1.482*
- Feed conversion ratio [3, 6]: 1.482
- Weight gain [3, 6]: 3210 g
- Feed intake [3, 7]: 1320 g
- Weight gain [3, 7]: 630* g
- Feed conversion ratio [3, 7]: 2.095*
- Feed conversion ratio [3, 8]: 2.095
- Weight gain [3, 8]: 630 g
- Coefficient of variation [4]: 7.9%
